{"source": "patent US4920127A", "about": "“Substituted indoles and their use as 5-HT3 receptor antagonists” (Beecham Group p.l.c., priority 1987, dated 1990)", "note": "Counter-ions that a name gives are not always drawn."}
{"system": "von Bezold-Jarisch reflex evoked by 5-HT", "assay": "Antagonism of the von Bezold-Jarisch reflex evoked by 5-HT in the anaesthetised rat", "format": "in vivo", "conditions": "iv, male rats, urethane anaesthesia, compounds intravenously, 5-HT usually 6 μg/kg i.v., heart rate changes, read-out: ED50 (concentration required to reduce the 5HT-evoked response to 50% of the control response)", "protocol": "Antagonism of the von Bezold-Jarisch reflex\nThe compounds were evaluated for antagonism of the von Bezold-Jarisch reflex evoked by 5-HT in the anaesthetised rat according to the following method:\nMale rats, 250-350 g, were anaesthetised with urethane (1.25 g/kg intraperitoneally) and blood pressure and heart rate recorded as described by Fozard J. R. et al., J. Cardiovasc. Pharmacol. 2, 229-245 (1980). A submaximal dose of 5-HT (usually 6 μg/kg) was given repeatedly by the intravenous route and changes in heart rate quantified. Compounds were given intravenously and the concentration required to reduce the 5HT-evoked response to 50% of the control response (ED50) was then determined.", "units": {"ED50": "µg/kg"}}
{"smiles": "CN1[C@@H]2CC[C@H]1C[C@@H](NC(=O)N1CC3(CC3)c3ccccc31)C2", "note": "[Compound 6]", "ED50": 3.5}
{"smiles": "CN1[C@@H]2CC[C@H]1C[C@@H](NC(=O)N1CC3(CCCC3)c3ccccc31)C2", "note": "[Compound 10]", "ED50": 1.8}
{"smiles": "O=C(NC1CN2CCC1CC2)N1CC(c2ccccc2)c2ccccc21", "note": "(stereo not shown) [Compound 8, N-(1-Azabicyclo[2.2.2]oct-3-yl)2,3-dihydro-3-phenylindol-1-yl urea hydrochloride]", "ED50": 1.2}
{"smiles": "CN1[C@@H]2CC[C@H]1C[C@@H](NC(=O)N1CC3(CCCCC3)c3ccccc31)C2", "note": "[Compound 1]", "ED50": 3.6}
